Laboratory results: patent publication US20150313921A1, “Cancer Treatment Methods” (PLEDPHARMA AB, priority 2012, published 2015)
Like-named read-outs stand apart in the source and are kept apart here.

What was measured:
[1] = system: ovarian carcinoma A2780 cells; experiment: MTT viability assay, A2780 cells; settings: for EC50: Homo sapiens, A2780, 48 h; for cytotoxic effect in A2780 cells: alone (MnDPDP: alone or with Dx 3 nM or 30 nM), 48 h, MTT
Method: A2780 cells were co-incubated with MnDPDP, DPDP, and/or Dx. The viability of cells was measured using the methylthiazoletetrazolium (MTT) assay. Briefly, 8000 cells were seeded per well on a 96-well plate and grown overnight under standards. Cells were then exposed for 48 hours to various concentrations of MnDPDP, DPDP, and/or Dx at 37° C. The viability of the cells was then assessed by adding 5 mg/ml MTT to a final concentration of 0.5 mg/ml and incubating cells for a further 4 hours at 37° C. The blue formazan that is formed by mitochondrial dehydrogenases of viable cells was then dissolved overnight at 37° C. by adding 10% SDS and 10 mM HCl to a final concentration of 5% SDS and 5 mM HCl. Finally, the absorbance of the solution was read at 570 nm with a reference at 670 nm in a microplate reader (SpectraMax 340; Molecular Devices, Sunnyvale, Calif.) connected to an Apple Macintosh computer running the program Softmax Pro V1.2.0 (Molecular Devices). Viability is expressed as percent absorbance (A570 nm-A670 nm) relative to the untreated control cells. All values were given as arithmetic means±SD for in vitro cell MTT viability data. In vitro responses of Dx, MnDPDP, and/or DPDP with regard to viability are presented as concentration-effect curves. […] From this analysis, the low and Q7 high pD2 values (negative log of the concentration of Dx that produces half of its maximal inhibition in the two phases, −logIC50) were calculated.

[2] = system: infarct size; settings: pigs; MnPLED 3 μmol/kg; cited from earlier work
[3] = pigs, ten minutes after injection; cited from earlier work
[4] = cited from earlier work
[5] = system: human non-small cell lung cancer (NSCLC) U1810 cells; experiment: MTT viability assay, U1810 cells; assay type: cell-based; settings: for IC50: 48 h exposure, read-out: IC50 (concentration causing 50% inhibition of viability)
Method: The viability of cells was measured using the MTT assay. […] Cells were then exposed for 48 h to 1-1,000 μM DPDP (lot #RDL02090206) or MnDPDP (lot #02090106). […] The viability of U1810 cells in the presence of increasing concentrations of DPDP or MnDPDP is presented as concentration-response curves (mean±S.D.). The individual curves were fitted to the sigmoidal normalized response logistic equation (Graphpad Prism, version 5.02). From this analysis the concentrations causing 50% inhibition (IC50) of the test substances were calculated.

[6] = cited from earlier work; remark: listed apart in the source
[7] = Mn2+ versus Zn2+

COc1cccc2c1C(=O)c1c(O)c3c(c(O)c1C2=O)C[C@@](O)(C(=O)CO)C[C@@H]3O[C@H]1C[C@H](N)[C@H](O)[C@H](C)O1 [Dx, Doxorubicin, reference compound]
EC50 ([1]; read-out: pD2 (-logEC50), first phase (high pD2) of biphasic curve (converted)): 0.00545 µM
EC50 ([1]; read-out: pD2 (-logEC50), second phase (low pD2) of biphasic curve (converted)): 0.225 µM

Cc1[nH+]cc(COP(=O)([O-])[O-])c(CN(CCN(CC(=O)[O-])Cc2c(COP(=O)([O-])O)c[nH+]c(C)c2O)CC(=O)[O-])c1O.[Mn].[Na+].[Na+].[Na+] [MnDPDP]
cytotoxic effect in A2780 cells [1]: did not have any obvious cytotoxic effects
effect on infarct size [2]: did not reduce the infarct size
replacement of manganese with zinc [3]: all manganese has been replaced with zinc
administered manganese released ([4]; intravenous injection into humans): about 80%
injected manganese that stays bound to the chelator ([4]; man, for a considerable amount of time): about 30%
injected MnDPDP transformed into MnPLED ([4]; shortly after intravenous injection in man): about 30%
IC50 [5]: 437 µM

Cc1ncc(CO)c(CN(CCN(CC(=O)O)Cc2c(CO)cnc(C)c2O)CC(=O)O)c1O [PLED, N,N′-dipyridoxyl ethylenediamine-N,N′-diacetic acid]
stability constant with Mn2+ ([6]; Mn2+): 12.56 logK
stability constant with Zn2+ ([6]; Zn2+): 16.68 logK
Mn2+ dissociates more readily than Zn2+ (fold) [7]: about 1000 times

Cc1ncc(COP(=O)(O)O)c(CN(CCN(CC(=O)O)Cc2c(COP(=O)(O)O)cnc(C)c2O)CC(=O)O)c1O [DPDP, N,N′-bis-(pyridoxal-5-phosphate)-ethylenediamine-N,N′-diacetic acid]
cancer cells killed ([1]; 30 μM, A2780 cells): approximately 50%
cancer cells killed ([1]; 100 μM, A2780 cells): killing almost all cells
additive effect to the cytotoxic effect of Dx alone ([1]; DPDP 10 μM or 30 μM added to Dx, A2780 cells): did not reveal any obvious additive effect
cytotoxic effect in A2780 cells [1]: had cytotoxic effects
Mn2+ dissociates more readily than Zn2+ (fold) [7]: about 1000 times
IC50 ratio between MnDPDP and DPDP (times more potent than MnDPDP) ([5]; 48 h): 17 times
IC50 [5]: 52.8 µM
